# Reference: US20060134188A1, “Transdermal pharmaceutical preparation with a progesterone A-specific ligand (PRASL) as active ingredient” (priority 2004, published 2006)
# What was measured:
# [1] = background statement; cited from earlier work
# [2] = Solubility of PRASL in the adhesive matrix; type: physicochemical; details: acrylate adhesive matrix DuroTak 387-2287
# From the text: The selection of suitable adhesive matrices occurs based on the solubility of PRASL in the adhesive matrices. Suitable adhesive matrices for the present invention are those in which the solubility of PRASL is between 0.1 to 5%. Adhesive matrices, in which the solubility of PRASL is between 0.1 to 2%, have proven to be especially suitable.
# If the solubility of the adhesive matrix used for PRASL is larger than 2 to 5%, as e.g. in the case of the acrylate adhesive matrix, DuroTak 387-2287, the entire effective ingredient amount dissolves after film-formation and the advantages of the amorphous effective ingredient dispersion according to the present invention cannot be employed.
smiles,measurement,setting,value
"O=C1OCc2cc(NC(=O)[C@](O)(CC3(c4cc(C(F)(F)F)ccc4F)CC3)C(F)(F)F)ccc21 [PRASL, (R)-3-{1-[2-fluoro-5-(trifluoromethyl)-phenyl]-cyclopropyl}-2-hydroxy-N-(phthalid-5-yl)-2-(trifluoromethyl)-propanamide]",Daily dosage that activates pharmacological effects,[1],30 micrograms
same,Solubility of the adhesive matrix for PRASL,[2],2 to 5%
